Here are results for 21 molecules from patent US10035790B2, “RORγ modulators” (BRISTOL-MYERS SQUIBB COMPANY, priority 2012, dated 2018).

This assay addresses T1, ligand binding domain of human RORγ (A262-S507) (Homo sapiens, UniProt P51449).
T1 construct: made in house; host or cells: E. coli
T1 sequence (P51449 262-507): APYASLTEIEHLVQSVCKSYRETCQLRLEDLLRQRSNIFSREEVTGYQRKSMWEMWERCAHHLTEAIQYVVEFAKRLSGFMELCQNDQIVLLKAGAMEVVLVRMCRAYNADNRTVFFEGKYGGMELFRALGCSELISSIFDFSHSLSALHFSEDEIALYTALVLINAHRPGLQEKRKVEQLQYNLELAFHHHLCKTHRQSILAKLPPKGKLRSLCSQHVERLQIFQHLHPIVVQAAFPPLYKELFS
Kind of assay: General RORγ SPA binding assay (competition with [3H]25-hydroxycholesterol). To be noted: RORγ SPA binding assay, inhibition of [3H]25-hydroxycholesterol binding; read-out: IC50. The protocol:
Example 2 General RORγ SPA Binding Assay
The binding of potential ligands to RORγ is measured by competition with [^3H]25-hydroxycholesterol using a scintillation proximity assay (SPA) binding assay. The ligand binding domain of human RORγ (A262-S507) with an N-terminal His tag is expressed in E. coli and purified using nickel affinity chromotography. 50 nM RORγ (A262-S507) is incubated with test compound at varying concentrations for 15 min at room temperature in PBS buffer containing 0.5% fatty acid free BSA. […] of [^3H]25-hydroxycholesterol is then added, and the reaction is incubated for 15 min. 4 mg/mL of Ysi Copper HIS-TAG SPA Beads (Perkin Elmer) are added, and the mixture is incubated for 30 min. The reaction is read on a MicroBeta Trilux scintillation plate reader (Perkin Elmer). IC50 values are determined from the percentage inhibition of [^3H]25-hydroxycholesterol binding.
For the molecule `Cc1cc(C)cc(CNC(=O)c2cnc(C)nc2C2CCN(C(=O)Cc3cc(F)ccc3F)CC2)c1` [Compound A14, 4-(1-(2-(2,5-difluorophenyl)acetyl)piperidin-4-yl)-N-(3,5-dimethylbenzyl)-2-methylpyrimidine-5-carboxamide], the IC50 worked out at 66 nM. As to `CCc1ncc(C(=O)NNc2cccc(Cl)c2)c(C2CCN(C(=O)Cc3c(F)cccc3F)CC2)n1` [Compound G3, N′-(3-chlorophenyl)-4-(1-(2-(2,6-difluorophenyl)acetyl)piperidin-4-yl)-2-ethylpyrimidine-5-carbohydrazide], the half-inhibitory concentration (IC50) turned out to be 8.1 nM. The result for `C/C(=N\Oc1cc(C)ccc1C)c1cnc(C)nc1C1CCN(C(=O)Cc2c(F)cccc2F)CC1` [Compound B18, (E)-2-(2,6-difluorophenyl)-1-(4-(5-(1-((2,5-dimethylphenoxy)imino)ethyl)-2-methylpyrimidin-4-yl)piperidin-1-yl)ethanone] reads 11.2 nM; that for `CC(O)(COc1ccnc(C(F)(F)F)n1)c1cnc(OC(CF)CF)nc1C1CCN(C(=O)Nc2c(F)cccc2F)CC1` (stereo not drawn) [Compound D42, N-(2,6-Difluorophenyl)-4-[2-{[2-fluoro-1-(fluoromethyl)ethyl]oxy}-5-(1-hydroxy-1-methyl-2-{[2-(trifluoromethyl)pyrimidin-4-yl]oxy}ethyl)pyrimidin-4-yl]piperidine-1-carboxamide], 348 nM.

As for `Cc1ncc(C(F)(F)CNc2ccnc(C(F)(F)F)n2)c(C2CCN(C(=O)Cc3c(F)cccc3F)CC2)n1` [Compound N19, N-[2-(4-{1-[(2,6-Difluorophenyl)acetyl]piperidin-4-yl}-2-methylpyrimidin-5-yl)-2,2-difluoroethyl]-2-(trifluoromethyl)pyrimidin-4-amine], the IC50 was 6.5 nM. In the case of `COc1cccc(O/N=C(\C)c2cnc(C)nc2C2CCN(C(=O)Cc3c(F)cccc3F)CC2)c1` [Compound B21, (E)-2-(2,6-difluorophenyl)-1-(4-(5-(1-((3-methoxyphenoxy)imino)ethyl)-2-methylpyrimidin-4-yl)piperidin-1-yl)ethanone], the IC50 was 23.7 nM. As to `Cc1ncc(C(=O)NCc2cc(F)cc(Cl)c2)c(C2CCN(C(=O)Cc3c(F)cccc3F)CC2)n1` [Compound A41, N-(3-chloro-5-fluorobenzyl)-4-(1-(2-(2,6-difluorophenyl)acetyl)piperidin-4-yl)-2-methylpyrimidine-5-carboxamide], the concentration for half-maximal inhibition (IC50) was determined as 4.8 nM. Regarding `Cc1nc(C)c(C(=O)NOc2cccc(Cl)c2)c(C2CCN(C(=O)Cc3c(F)cccc3F)CC2)n1` [Compound H5, N-(3-chlorophenoxy)-4-(1-(2-(2,6-difluorophenyl)acetyl)piperidin-4-yl)-2,6-dimethylpyrimidine-5-carboxamide], the IC50 came to 503 nM. Take `CSc1ncc(C(C)(O)COc2cccc(C(F)(F)F)n2)c(C2CCN(C(=O)Nc3c(F)cccc3F)CC2)n1` (stereo not drawn) [Compound D26, N-(2,6-Difluorophenyl)-4-[5-(1-hydroxy-1-methyl-2-{[6-(trifluoromethyl)pyridin-2-yl]oxy}ethyl)-2-(methylthio)pyrimidin-4-yl]piperidine-1-carboxamide]: the IC50 amounted to 12.6 nM. `Cc1nc(C)c(C(=O)NCc2ccnc(C#N)c2)c(C2CCN(C(=O)Cc3c(F)cccc3F)CC2)n1` [Compound A83, N-((2-cyanopyridin-4-yl)methyl)-4-(1-(2-(2,6-difluorophenyl)acetyl)piperidin-4-yl)-2,6-dimethylpyrimidine-5-carboxamide]: the IC50 stood at 45.8 nM. Turning to `Cc1ncc(C(=O)NC(CO)c2cccc(Cl)c2)c(C2CCN(C(=O)Cc3c(F)cccc3F)CC2)n1` (stereo not drawn) [Compound A110, N-(1-(3-Chlorophenyl)-2-hydroxyethyl)-4-(1-(2-(2,6-difluorophenyl)acetyl)piperidin-4-yl)-2-methylpyrimidine-5-carboxamide], the concentration for half-maximal inhibition (IC50) came to 1440 nM. For the molecule `Cc1cc(C)cc(CNC(=O)c2cnc(C)nc2C2CCN(C(=O)Cc3ccccn3)CC2)c1` [Compound A38, N-(3,5-dimethylbenzyl)-2-methyl-4-(1-(2-(pyridin-2-yl)acetyl)piperidin-4-yl)pyrimidine-5-carboxamide], the IC50 came out at 5310 nM.

For `COc1cccc(CNC(=O)c2cnc(C)nc2C2CCN(C(=O)Cc3c(F)cccc3F)CC2)c1` [Compound A58, 4-(1-(2-(2,6-difluorophenyl)acetyl)piperidin-4-yl)-N-(3-methoxybenzyl)-2-methylpyrimidine-5-carboxamide], the concentration for half-maximal inhibition (IC50) turned out to be 24.3 nM. With `CSc1ncc(/C(C)=N/Oc2cccc(C(F)(F)F)c2)c(C2CCN(C(=O)Nc3c(F)cccc3F)CC2)n1` [Compound B50, N-(2,6-Difluorophenyl)-4-{2-(methylthio)-5-[(1E)-N-{[3-(trifluoromethyl)phenyl]oxy}ethanimidoyl]pyrimidin-4-yl}piperidine-1-carboxamide], the IC50 was determined as 445 nM. The result for `Cc1ncc(C(=O)NCc2ccc(Cl)c(Cl)c2)c(C2CCN(C(=O)Cc3c(F)cccc3F)CC2)n1` [Compound A2, N-(3,4-dichlorobenzyl)-4-(1-(2-(2,6-difluorophenyl)acetyl)piperidin-4-yl)-2-methylpyrimidine-5-carboxamide] reads 6.8 nM; that for `C/C(=N\Oc1ccnc(C#N)c1)c1cnc(C)nc1C1CCN(C(=O)Cc2c(F)cccc2F)CC1` [Compound B13, (E)-4-(((1-(4-(1-(2-(2,6-difluorophenyl)acetyl)piperidin-4-yl)-2-methylpyrimidin-5-yl)ethylidene)amino)oxy)picolinonitrile], 4.7 nM.

As to `Cc1ncc(C(C)(O)Cc2cccc(C(F)(F)F)n2)c(C2CCN(C(=O)Nc3c(F)cccc3F)CC2)n1` (stereo not drawn) [Compound D47, N-(2,6-Difluorophenyl)-4-(5-{1-hydroxy-1-methyl-2-[6-(trifluoromethyl)pyridin-2-yl]ethyl}-2-methylpyrimidin-4-yl)piperidine-1-carboxamide], the IC50 amounted to 52.9 nM. As for `Cc1ncc(C(F)COc2cccc(C(F)(F)F)n2)c(C2CCN(C(=O)Nc3c(F)cccc3F)CC2)n1` (stereo not drawn) [Compound N22, N-(2,6-Difluorophenyl)-4-[5-(1-fluoro-2-{[6-(trifluoromethyl)pyridin-2-yl]oxy}ethyl)-2-methylpyrimidin-4-yl]piperidine-1-carboxamide], the IC50 is 7 nM. On to `C/C(=N/Oc1cccc(C(F)(F)F)c1)c1cnc(C)nc1C1CCN(C(=O)Nc2c(F)cccc2F)CC1` [Compound B44, N-(2,6-Difluorophenyl)-4-{2-methyl-5-[(1Z)—N-{[3-(trifluoromethyl)phenyl]oxy}ethanimidoyl]pyrimidin-4-yl}piperidine-1-carboxamide], for which the half-inhibitory concentration (IC50) was 84.9 nM. With `Nc1ncc(C(=O)NCc2cccc(Cl)c2)c(C2CCN(C(=O)Cc3c(F)cccc3F)CC2)n1` [Compound A89, 2-amino-N-(3-chlorobenzyl)-4-(1-(2-(2,6-difluorophenyl)acetyl)piperidin-4-yl)pyrimidine-5-carboxamide], the IC50 worked out at 5.8 nM. For `Cc1ncc(C(=O)COc2cccc(C(F)(F)F)n2)c(C2CCN(C(=O)Nc3c(F)cccc3F)CC2)n1` [Compound M4, N-(2,6-Difluorophenyl)-4-[2-methyl-5-({[6-(trifluoromethyl)pyridin-2-yl]oxy}acetyl)pyrimidin-4-yl]piperidine-1-carboxamide], the IC50 worked out at 6.5 nM.

One may read the IC50 as the midpoint of a concentration-inhibition curve.
